Measured values: PubChem BioAssay (NCI)
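In this assay, cells in 96-well plates receive the compound at five concentrations for 48 hours. Endpoints are linearly interpolated between the surrounding concentrations. Here, GI50 denotes the concentration required for 50% inhibition of growth. TGI marks complete inhibition of growth.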

What was measured:
Test in all cases: growth of human tumour cells (NCI), 48 h
[1] = system: 786-0 renal
[2] = system: A498 renal
[3] = system: A549 NSCLC
[4] = system: ACHN renal
[5] = system: BT-549 breast
[6] = system: CAKI-1 renal
[7] = system: CCRF-CEM leukemia
[8] = system: COLO 205 colon
[9] = system: DU-145 prostate
[10] = system: EKVX NSCLC
[11] = system: HCC-2998 colon
[12] = system: HCT-116 colon
[13] = system: HCT-15 colon
[14] = system: HL-60(TB) leukemia
[15] = system: HOP-62 NSCLC
[16] = system: HOP-92 NSCLC
[17] = system: HS 578T breast
[18] = system: HT29 colon
[19] = system: IGROV1 ovarian
[20] = system: K-562 leukemia
[21] = system: KM12 colon
[22] = system: LOX IMVI melanoma
[23] = system: M14 melanoma
[24] = system: MALME-3M melanoma
[25] = system: MCF7 breast
[26] = system: MDA-MB-231 breast
[27] = system: MDA-MB-435
[28] = system: MDA-MB-468 breast
[29] = system: MOLT-4 leukemia
[30] = system: NCI-H226 lung
[31] = system: NCI-H23 lung
[32] = system: NCI-H460 lung
[33] = system: NCI-H522 lung
[34] = system: NCI/ADR-RES ovarian
[35] = system: OVCAR-3 ovarian
[36] = system: OVCAR-4 ovarian
[37] = system: OVCAR-5 ovarian
[38] = system: OVCAR-8 ovarian
[39] = system: PC-3 prostate
[40] = system: RPMI-8226 leukemia
[41] = system: RXF 393 renal
[42] = system: SF-268 CNS
[43] = system: SF-295 CNS
[44] = system: SF-539 CNS
[45] = system: SK-MEL-2 melanoma
[46] = system: SK-MEL-28 melanoma
[47] = system: SK-MEL-5 melanoma
[48] = system: SK-OV-3 ovarian
[49] = system: SN12C renal
[50] = system: SNB-19 CNS
[51] = system: SNB-75 CNS
[52] = system: SR leukemia
[53] = system: SW-620 colon
[54] = system: T-47D breast
[55] = system: TK-10 renal
[56] = system: U251 CNS
[57] = system: UACC-257 melanoma
[58] = system: UACC-62 melanoma
[59] = system: UO-31 renal

Molecule `O=C(NO)c1ccc(Cn2ccc3c(NCc4ccccc4)ncnc32)cc1` has a GI50 [1] of 8.63 µM, a TGI [1] of 26.6 µM and a GI50 [2] of 2.28 µM. The TGI [2] was 10.2 µM, the GI50 [3] was 4.34 µM and the TGI [3] was 20.6 µM. For the same molecule, the GI50 [4] was 4.07 µM, the TGI [4] was 15.2 µM and the GI50 [5] was 13.7 µM. For the same molecule, the TGI [5] was 31.7 µM, the GI50 [6] was 3.21 µM and the TGI [6] was 15.2 µM. It also gave a GI50 [7] of 3.72 µM, a TGI [7] of 58.7 µM and a GI50 [8] of 2.43 µM. The TGI [8] was 6.24 µM, the GI50 [9] was 4.06 µM and the TGI [9] was over 103 µM. It also gave a GI50 [10] of 5.93 µM, a TGI [10] of 19.8 µM and a GI50 [11] of 4.5 µM. The TGI [11] was 17.1 µM, the GI50 [12] was 3.4 µM and the TGI [12] was 24.9 µM. It also gave a GI50 [13] of 3.09 µM, a TGI [13] of 15.2 µM and a GI50 [14] of 2.34 µM. For the same molecule, the TGI [14] was 6.38 µM, the GI50 [15] was 4.13 µM and the TGI [15] was 20.9 µM. The GI50 [16] was 4.07 µM, the TGI [16] was 18.5 µM and the GI50 [17] was 2.27 µM. The TGI [17] was 7.62 µM, the GI50 [18] was 2.48 µM and the TGI [18] was 6.93 µM. The GI50 [19] was 4.14 µM, the TGI [19] was 14.7 µM and the GI50 [20] was 2.03 µM. It also gave a TGI [20] of over 103 µM, a GI50 [21] of 3.19 µM and a TGI [21] of 12.7 µM. For the same molecule, the GI50 [22] was 4.2 µM, the TGI [22] was 16.1 µM and the GI50 [23] was 4.12 µM. It also gave a TGI [23] of 20.2 µM, a GI50 [24] of 1.99 µM and a TGI [24] of 9.52 µM. For the same molecule, the GI50 [25] was 3.25 µM, the TGI [25] was 22.8 µM and the GI50 [26] was 5.2 µM. It also gave a TGI [26] of 22 µM, a GI50 [27] of 0.562 µM and a TGI [27] of 2.26 µM. The GI50 [28] was 2.12 µM, the TGI [28] was 6.05 µM and the GI50 [29] was 2.41 µM. The TGI [29] was 10.3 µM, the GI50 [30] was 4.17 µM and the TGI [30] was 25.5 µM. The GI50 [31] was 4.8 µM, the TGI [31] was 17.2 µM and the GI50 [32] was 3.12 µM. The TGI [32] was 19.1 µM, the GI50 [33] was 1.93 µM and the TGI [33] was 7.69 µM. It also gave a GI50 [34] of 2.6 µM, a TGI [34] of 12.7 µM and a GI50 [35] of 2.17 µM. For the same molecule, the TGI [35] was 5.23 µM, the GI50 [36] was 12.2 µM and the TGI [36] was 96.2 µM. It also gave a GI50 [37] of 2.57 µM, a TGI [37] of 10.1 µM and a GI50 [38] of 3.1 µM. It also gave a TGI [38] of 14.4 µM, a GI50 [39] of 4.35 µM and a TGI [39] of 97.9 µM. It also gave a GI50 [40] of 2.9 µM, a TGI [40] of over 103 µM and a GI50 [41] of 1.94 µM. It also gave a TGI [41] of 5.63 µM, a GI50 [42] of 8.8 µM and a TGI [42] of 36.5 µM. For the same molecule, the GI50 [43] was 3.49 µM, the TGI [43] was 12.7 µM and the GI50 [44] was 2.64 µM. The TGI [44] was 9.8 µM, the GI50 [45] was 4.58 µM and the TGI [45] was 18.7 µM. The GI50 [46] was 3.77 µM, the TGI [46] was 17.5 µM and the GI50 [47] was 1.9 µM. It also gave a TGI [47] of 6.37 µM, a GI50 [48] of 3.27 µM and a TGI [48] of 15.6 µM. The GI50 [49] was 4.41 µM, the TGI [49] was 17.3 µM and the GI50 [50] was 5.81 µM. The TGI [50] was 20.6 µM, the GI50 [51] was 1.25 µM and the TGI [51] was 5.36 µM. The GI50 [52] was 0.937 µM, the TGI [52] was over 103 µM and the GI50 [53] was 2.22 µM. It also gave a TGI [53] of 6.49 µM, a GI50 [54] of 3.13 µM and a TGI [54] of 21.8 µM. The GI50 [55] was 3.2 µM, the TGI [55] was 17.8 µM and the GI50 [56] was 3.21 µM. The TGI [56] was 15.2 µM, the GI50 [57] was 2.39 µM and the TGI [57] was 15.1 µM. The GI50 [58] was 2.39 µM, the TGI [58] was 12.2 µM and the GI50 [59] was 3.93 µM. The TGI [59] was 16.6 µM.
